Patent US20020115659A1, “Compounds having heterocyclic groups containing two nitrogen atoms for treating multidrug resistance” (priority 2000, published 2002)

Test system: NIH-MDR1-G185 cells
Experiment: Fluorescent substrate accumulation assay (BODIPY-FL Taxol accumulation)
Assay type: cell-based
Details: MDR modulator 10 micromolar, 15 min preincubation; BODIPY-FL Taxol 500 nM, 40 min at 37° C.; fluorescence in presence/absence of modulator
Method: NIH-MDR1-G185 cells (obtained from M. Gottesman, NIH) were harvested and resuspended in RPMI-1640 containing L-glutamine, 10% Cosmic Calf Serum and penicillin-streptomycin. Cell suspension aliquots of 175 microliters (1×10^5 cells) were added to individual wells of a 96 well microtiter plate and preincubated for 15 min at 37° C. with 20 microliter MDR modulator diluted in cell culture media to give a final concentration of 10 micromolar. Control wells received no modulating agent. BODIPY-FL Taxol (Molecular Probes, Eugene, Oreg.) was added to each well in 10 microliter aliquots to give a final concentration of 500 nM and cells were incubated for 40 min at 37° C. Cells were centrifuged at 100× g for 5 min at 4° C. and the cell pellet washed with 200 microliters cold PBS to remove fluorescent medium from wells. Cells were centrifuged once more, media removed, and cells resuspended in 200 microliters cold PBS. Fluorescence accumulation was measured in a fluorescence plate reader fitted with an excitation filter of 485 nm and an emission filter of 538 rn. BODIPY-FL taxol accumulation in the cells was calculated as follows:
Accumulation Index=(fluorescence in NIH-MDR1-G185 cells in the presence of modulator)/(fluorescence in NIH-MDR1-G185 cells in absence of modulator)
Accumulation Index of various compounds prepared above was tested according to the method in Reference Example 3.

SMILES | Accumulation Index
O=C(C(CCCc1ccccc1)CCCc1ccccc1)N1CCCCN(C[C@@H](O)COc2cccc3ncccc23)C1 [Example 5] | 12
COc1ccc(S(=O)(=O)N2CCC(=O)N(c3ccccc3)C2C(=O)N2CCN(C(c3ccccc3)c3ccccc3)CC2)cc1OC (centres unmarked) [Example 12] | 7
